In patent US20120184769A1, “METHOD FOR ISOLATING […]-N,N-DIACETONITRILE” (BASF SE, priority 2009, published 2012):

Test: Solubility of MGDN in water or aqueous ammonium sulfate solution
Format: physicochemical

dissolved MGDN in the aqueous solution (emulsion formed) (above about 60° C., emulsion of MGDN and its aqueous solution): more than 5 % by weight | solubility of MGDN in water (at 10° C., in water or an aqueous ammonium sulfate solution): about 0.5 % by weight | solubility of MGDN in water (at around 60° C.): about 5 % by weight
SMILES: CC(C#N)N(CC#N)CC#N (stereo not drawn) [MGDN, methylglycinenitrile-N,N-diacetonitrile]
